Measured values published in ChEMBL document CHEMBL5223114, “Design, synthesis and biological evaluation of novel macrocyclic derivatives bearing aniline pyrimidine scaffolds as EGFR-TKIs” (Bioorg Med Chem Lett, 2022).

How the values were obtained:
BaF3 [1] = test: Antiproliferative activity against mouse BaF3 cells harboring EGFR del19/T790M/C797S triple mutant assessed as inhibition of cell growth incubated for 72 hrs by CCK-8 assay; assay type: functional, cell-based; conditions: BaF3, 72 h
BaF3 [2] = test: Antiproliferative activity against mouse BaF3 cells harboring EGFR del19/T790M double mutant assessed as inhibition of cell growth incubated for 72 hrs by CCK-8 assay; assay type: functional, cell-based; conditions: BaF3, 72 h
[3] = target: Epidermal growth factor receptor (Homo sapiens, UniProt P00533, 746-750DEL/C797S/T790M); test: Inhibition of EGFR d746-750/T790M/C797S triple mutant (unknown origin)
[4] = target: Epidermal growth factor receptor (Homo sapiens, UniProt P00533, 746-750DEL/T790M); test: Inhibition of EGFR d746-750/T790M double mutant (unknown origin)
[5] = target: Epidermal growth factor receptor (Homo sapiens, UniProt P00533, L858R/T790M); test: Inhibition of EGFR L858R/T790M double mutant (unknown origin)
Epidermal growth factor receptor (Homo sapiens, UniProt P00533, L858R/T790M), sequence (P00533 25-1210 T790M/L858R limits assumed): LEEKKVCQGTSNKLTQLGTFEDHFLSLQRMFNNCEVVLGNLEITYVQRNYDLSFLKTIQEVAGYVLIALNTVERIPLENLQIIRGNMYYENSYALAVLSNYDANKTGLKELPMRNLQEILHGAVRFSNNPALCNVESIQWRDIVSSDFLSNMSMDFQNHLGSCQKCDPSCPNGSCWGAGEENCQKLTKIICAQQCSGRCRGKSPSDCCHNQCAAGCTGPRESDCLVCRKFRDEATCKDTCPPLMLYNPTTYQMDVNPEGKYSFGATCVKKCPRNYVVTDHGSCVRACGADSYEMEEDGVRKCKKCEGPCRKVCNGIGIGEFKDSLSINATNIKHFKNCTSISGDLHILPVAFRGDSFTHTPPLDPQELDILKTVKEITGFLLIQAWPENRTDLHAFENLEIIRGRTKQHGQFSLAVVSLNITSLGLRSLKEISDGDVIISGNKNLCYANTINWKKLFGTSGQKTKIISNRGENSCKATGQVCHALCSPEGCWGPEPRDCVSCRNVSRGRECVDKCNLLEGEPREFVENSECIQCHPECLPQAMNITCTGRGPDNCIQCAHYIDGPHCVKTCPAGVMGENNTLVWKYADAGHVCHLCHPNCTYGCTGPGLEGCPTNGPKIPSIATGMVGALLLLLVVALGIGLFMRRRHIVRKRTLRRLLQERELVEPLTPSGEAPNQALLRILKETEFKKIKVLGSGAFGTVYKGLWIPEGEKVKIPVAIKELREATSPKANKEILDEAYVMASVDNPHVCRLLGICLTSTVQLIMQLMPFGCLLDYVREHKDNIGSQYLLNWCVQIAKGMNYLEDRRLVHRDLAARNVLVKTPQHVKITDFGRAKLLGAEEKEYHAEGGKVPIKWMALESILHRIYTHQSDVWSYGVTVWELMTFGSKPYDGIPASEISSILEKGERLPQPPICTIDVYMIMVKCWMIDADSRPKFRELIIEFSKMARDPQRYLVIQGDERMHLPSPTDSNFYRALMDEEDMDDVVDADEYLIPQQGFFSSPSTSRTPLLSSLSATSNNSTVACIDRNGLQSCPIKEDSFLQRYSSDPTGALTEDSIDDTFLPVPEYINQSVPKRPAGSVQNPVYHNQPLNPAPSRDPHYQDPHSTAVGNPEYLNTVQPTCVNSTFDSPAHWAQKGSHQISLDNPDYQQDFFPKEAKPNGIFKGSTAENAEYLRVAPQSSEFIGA

Epidermal growth factor receptor (Homo sapiens, UniProt P00533, 746-750DEL/C797S/T790M), sequence (P00533 whole entry, looked up, stated change not applied): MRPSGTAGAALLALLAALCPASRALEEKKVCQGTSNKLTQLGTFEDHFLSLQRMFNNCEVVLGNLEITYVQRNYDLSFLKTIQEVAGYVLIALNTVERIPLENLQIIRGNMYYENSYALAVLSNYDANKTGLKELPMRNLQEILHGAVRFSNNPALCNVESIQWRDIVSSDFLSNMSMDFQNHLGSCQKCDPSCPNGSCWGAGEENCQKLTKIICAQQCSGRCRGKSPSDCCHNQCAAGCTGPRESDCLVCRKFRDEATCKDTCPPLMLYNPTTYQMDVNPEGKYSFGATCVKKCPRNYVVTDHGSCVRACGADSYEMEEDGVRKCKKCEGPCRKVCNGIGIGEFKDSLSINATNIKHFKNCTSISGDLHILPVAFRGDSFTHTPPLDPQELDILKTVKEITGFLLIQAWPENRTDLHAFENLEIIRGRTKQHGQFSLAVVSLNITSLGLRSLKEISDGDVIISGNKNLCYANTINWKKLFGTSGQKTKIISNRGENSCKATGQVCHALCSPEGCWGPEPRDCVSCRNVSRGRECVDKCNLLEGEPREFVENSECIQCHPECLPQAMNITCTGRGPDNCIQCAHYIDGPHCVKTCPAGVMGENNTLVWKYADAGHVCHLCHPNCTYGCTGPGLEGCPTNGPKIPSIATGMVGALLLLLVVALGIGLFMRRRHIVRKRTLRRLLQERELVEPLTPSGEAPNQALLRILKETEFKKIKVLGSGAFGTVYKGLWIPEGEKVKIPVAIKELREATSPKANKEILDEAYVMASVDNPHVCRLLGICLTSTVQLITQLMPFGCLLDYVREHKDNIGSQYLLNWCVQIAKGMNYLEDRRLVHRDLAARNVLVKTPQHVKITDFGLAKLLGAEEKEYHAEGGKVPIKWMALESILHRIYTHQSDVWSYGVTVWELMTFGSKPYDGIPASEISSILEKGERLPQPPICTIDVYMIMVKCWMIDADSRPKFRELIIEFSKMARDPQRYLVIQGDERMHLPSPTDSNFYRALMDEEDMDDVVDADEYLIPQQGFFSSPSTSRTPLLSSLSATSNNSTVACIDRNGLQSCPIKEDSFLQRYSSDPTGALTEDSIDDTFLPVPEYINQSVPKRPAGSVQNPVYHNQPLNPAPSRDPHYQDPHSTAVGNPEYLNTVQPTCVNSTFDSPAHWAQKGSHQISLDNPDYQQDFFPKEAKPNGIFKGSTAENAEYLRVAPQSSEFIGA
Epidermal growth factor receptor (Homo sapiens, UniProt P00533, 746-750DEL/T790M), sequence (P00533 whole entry, looked up, stated change not applied): as above

Compound	IC50 (BaF3 [1]) [nM]	IC50 (BaF3 [2]) [nM]	IC50 [3] [nM]	IC50 [4] [nM]	IC50 [5] [nM]
C=CC(=O)N1CCCCCCn2cc(c3ccccc32)-c2ccnc(n2)Nc2cccc1c2	839	215			
C=CC(=O)N1CCCCCCCn2cc(c3ccccc32)-c2ccnc(n2)Nc2cc1ccc2F	712	213			
C=CC(=O)N1CCCCCCCCCn2cc(c3ccccc32)-c2ccnc(n2)Nc2cccc1c2			> 100	13.2	25.2
C=CC(=O)N1CCCCCCn2cc(c3ccccc32)-c2ccnc(n2)Nc2cc1c(OCCCF)cc2F	835	63	> 100	0.6	13.2
C=CC(=O)N1CCCCCCn2cc(c3ccccc32)-c2ccnc(n2)Nc2cc1ccc2OC	893	51	> 100	0.47	8.31
C=CC(=O)Nc1cc(Nc2nccc(-c3cn(C)c4ccccc34)n2)c(OC)cc1N(C)CCN(C)C [OSIMERTINIB]	859	33			

Second part, the compound after the results:

IC50 (BaF3 [1]) [nM]	IC50 (BaF3 [2]) [nM]	IC50 [3] [nM]	IC50 [4] [nM]	IC50 [5] [nM]	Compound
		> 100	2.96	25.7	C=CC(=O)N1CCCCCCCn2cc(c3ccccc32)-c2ccnc(n2)Nc2cc1c(OCCCF)cc2F
		86.5	7.03	20.1	C=CC(=O)N1CCCCCCCCn2cc(c3ccccc32)-c2ccnc(n2)Nc2cccc1c2
695	35	> 100	0.22	6.49	C=CC(=O)N1CCCCCCn2cc(c3ccccc32)-c2ccnc(n2)Nc2cc1ccc2F
867	148	> 100	0.65	10	C=CC(=O)N1CCCCCCCn2cc(c3ccccc32)-c2ccnc(n2)Nc2cc1ccc2OC
811	218	55.3	0.55	3.45	C=CC(=O)N1CCCCCCCn2cc(c3ccccc32)-c2ccnc(n2)Nc2cccc1c2
